Test results: EPA's ToxValDB 9.5
Where “and” joins values, the source holds several entries; their conditions need not be identical. Equal values may be shown once.

Experiments:
[1] = test system: Crangonyx richmondensis ssp. laurentianus; conditions: whole body, Monoporeia affinis, parasite infection
[2] = test system: Mus musculus; conditions: oral
[3] = developmental, duration: 16 days, gavage, F, B6C3F1, generation: F1, F1: spleen: spleen B220+ cells + F1: spleen: Splenic NK cell activity
[4] = developmental, duration: 16 days, gavage, M, B6C3F1, generation: F1, F1: IgM antibody titer (SRBC) + F1: thymus: thymus CD3+ cells + F1: thymus: thymus CD4+ cells
[5] = developmental, duration: 16 days, gavage, M, B6C3F1, generation: F1, F1: spleen: Splenic NK cell activity
[6] = short-term, duration: 7 days, gavage, M, BALB/c, spleen: lymphocyte proliferation (ConA)
[7] = short-term, duration: 7 days, gavage, M, BALB/c, spleen: spleen CD3+ cells (cells normalized to control)
[8] = short-term, duration: 7 days, gavage, M, C57BL/6, serum corticosterone + spleen: IFN-gamma levels + spleen: IL-2 secreting splenocytes + spleen: spleen: relative weight + thymus: thymus: …
[9] = short-term, duration: 7 days, gavage, M, C57BL/6, serum corticosterone + spleen: lymphocyte proliferation (LPS) + spleen: spleen cellularity + spleen: spleen: relative weight + spleen: …
[10] = short-term, duration: 7 days, gavage, M, C57BL/6, spleen: apoptotic splenocytes + spleen: spleen - mitochondrial membrane Rh123 fluorescence + spleen: spleen - ROS-DCF fluorescence + spleen…
[11] = short-term, duration: 7 days, gavage, M, C57BL/6, spleen: splenic DN (CD4-CD8-) cells
[12] = short-term, duration: 7 days, gavage, M, C57BL/6, spleen: splenocytes - CAT activity + spleen: splenocytes - GST activity + splenic lymphocyte protein - bax + splenic lymphocyte protein - …
[13] = short-term, duration: 10 days, diet, M, 129/SV, spleen: spleen CD19+ cells + spleen: spleen CD4+ cells + spleen: spleen CD8+ cells + spleen: spleen cellularity + spleen: spleen Pan-NK+ …
[14] = short-term, duration: 10 days, diet, M, C57BL/6, bone marrow: bone marrow cellularity + bone marrow: bone marrow: no. of CD19+ B-lymphoid cells + bone marrow: bone marrow: no. of Gr1+CD11b…
[15] = short-term, duration: 10 days, diet, M, C57BL/6, spleen: spleen CD19+ cells + spleen: spleen CD4+ cells + spleen: spleen CD8+ cells + spleen: spleen cellularity + spleen: spleen NK1.1+ …
[16] = short-term, duration: 10 days, diet, M, spleen: spleen: absolute weight + thymus: thymus CD4+ cells + thymus: thymus CD8+ cells + thymus: thymus cellularity + thymus: thymus DP (…
[17] = short-term, duration: 12 days, gavage, M, C57BL/6, body mass after exposure + spleen: spleen CD8+ cells + spleen: spleen: relative weight + thymus: thymus: relative weight
[18] = short-term, duration: 12 days, gavage, M, C57BL/6, spleen: spleen CD4+ cells + spleen: spleen cellularity
[19] = short-term, duration: 14 days, gavage, F, BALB/c, spleen: spleen: relative weight + thymus: percentage of apoptotic cells in thymus + thymus: thymus: relative weight
[20] = short-term, duration: 14 days, gavage, M, BALB/c, spleen: lymphocyte proliferation (ConA)
[21] = short-term, duration: 14 days, gavage, M, BALB/c, spleen: spleen CD3+ cells + spleen: spleen CD3+CD4+ cells + spleen: spleen CD3+CD8+ cells
[22] = short-term, duration: 14 days, gavage, M, BALB/c, spleen: spleen: relative weight
[23] = short-term, duration: 21 days, gavage, F, B6C3F1, Survival rate (influenza A infection)

Question: For O=S(=O)(O)C(F)(F)C(F)(F)C(F)(F)C(F)(F)C(F)(F)C(F)(F)C(F)(F)C(F)(F)F [Perfluorooctanesulfonic acid], which NOEL ([1]; short-term, duration: 22 day, M/F) is on record?
Answer: The NOEL was 0.2 mg/L.

Question: And the LOEL ([1]; subchronic, duration: 5 week, F)?
Answer: The LOEL was 0.01 mg/L.

Question: What about the NOEL ([2]; developmental, duration: 16 days, gavage, F, B6C3F1, generation: F1, F1: body weight (4 weeks of age) + F1: body weight (8 weeks of age) + F1: IgM antibody titer (SRBC) + F1: spleen: spleen CD3+ cells + F1: …) of the same compound?
Answer: Its NOEL is 5 mg/kg-day.

Question: What about the LOEL [2, 3] of the same compound?
Answer: The LOEL was 5 mg/kg-day.

Question: And the NOEL [2, 3]?
Answer: The NOEL was 1 mg/kg-day.

Question: What about the LOEL [2, 4] of the same compound?
Answer: The LOEL was 5 mg/kg-day.

Question: What about the NOEL [2, 4] of the same compound?
Answer: The NOEL was 1 mg/kg-day.

Question: What about the NOEL ([2]; developmental, duration: 16 days, gavage, M, B6C3F1, generation: F1, F1: body weight (4 weeks of age) + F1: body weight (8 weeks of age) + F1: spleen: spleen B220+ cells + F1: spleen: spleen CD3+ cells + F1: …) of the same compound?
Answer: The NOEL was 5 mg/kg-day.

Question: What about the LOEL [2, 5] of the same compound?
Answer: The LOEL was 1 mg/kg-day.

Question: And the NOEL [2, 5]?
Answer: The NOEL was 0.1 mg/kg-day.

Question: What about the NOEL ([2]; reproduction developmental, diet, M/F, BALB/c, generation: F1, F1: airway MCh sensitivity + F1: airway resistance (at 25 mg/mL methacholine) + F1: lung: BALF inflammatory cell counts: eosinophils + F1: …) of the same compound?
Answer: Its NOEL is 4 ppm.

Question: What about the LOEL ([2]; reproduction developmental, diet, M/F, BALB/c, generation: F1, F1: airway MCh sensitivity + F1: lung: BALF inflammatory cell counts: macrophages + F1: lung: BALF inflammatory cell counts: total cell …) of the same compound?
Answer: Its LOEL is 4 ppm.

Question: And the NOEL ([2]; short-term, duration: 3 weeks, gavage, F, BALB/c, IgM antibody level (TNP 1:200) + IgM antibody level (TNP 1:50))?
Answer: Its NOEL is 20 mg/kg-day.

Question: And the LOEL ([2]; short-term, duration: 7 days, gavage, F, BALB/c, Peripheral blood phagocytosis (HEMA) + spleen: lymphocyte proliferation (ConA) + spleen: spleen cellularity + spleen: Splenic NK cell …)?
Answer: Its LOEL is 20 mg/kg-day.

Question: And the NOEL ([2]; short-term, duration: 7 days, gavage, F, BALB/c, spleen: lymphocyte proliferation (LPS) + spleen: spleen CD4+ cells + spleen: spleen CD49b+ cells + spleen: spleen CD8+ cells + spleen: …)?
Answer: Its NOEL is 20 mg/kg-day.

Question: What about the LOEL [2, 6] of the same compound?
Answer: The LOEL was 10 mg/kg-day.

Question: And the NOEL [2, 6]?
Answer: The NOEL was 5 mg/kg-day.

Question: And the LOEL [2, 7]?
Answer: Its LOEL is 5 mg/kg-day.

Question: What about the NOEL [2, 7] of the same compound?
Answer: The NOEL was 2.5 mg/kg-day.

Question: And the NOEL ([2]; short-term, duration: 7 days, gavage, M, BALB/c, spleen: spleen CD3+ cells + spleen: spleen CD3+CD4+ cells + spleen: spleen CD3+CD4+ cells (cells normalized to control) + spleen: spleen CD3…)?
Answer: Its NOEL is 10 mg/kg-day.

Question: And the LOEL ([2]; short-term, duration: 7 days, gavage, M, C57BL/6, IgM antibody-secreting cells (SRBC) + spleen: lymphocyte proliferation (ConA))?
Answer: The LOEL was 5 mg/kg-day.

Question: What about the LOEL [2, 8] of the same compound?
Answer: Its LOEL is 20 mg/kg-day.

Question: What about the NOEL [2, 8] of the same compound?
Answer: Its NOEL is 5 mg/kg-day.

Question: And the LOEL [2, 9]?
Answer: Its LOEL is 20 mg/kg-day.

Question: And the NOEL [2, 9]?
Answer: Its NOEL is 5 mg/kg-day.

Question: What about the LOEL ([2]; short-term, duration: 7 days, gavage, M, C57BL/6, spleen: IL-4 levels + Total serum IgG level + Total serum IgM level) of the same compound?
Answer: Its LOEL is 5 mg/kg-day.

Question: And the NOEL ([2]; short-term, duration: 7 days, gavage, M, C57BL/6, spleen: IL-10 secreting splenocytes)?
Answer: Its NOEL is 20 mg/kg-day.

Question: And the LOEL [2, 10]?
Answer: The LOEL was 5 mg/kg-day.

Question: And the NOEL [2, 10]?
Answer: The NOEL was 1 mg/kg-day.

Question: What about the NOEL ([2]; short-term, duration: 7 days, gavage, M, C57BL/6, spleen: spleen: relative weight + thymus: thymus: relative weight) of the same compound?
Answer: Its NOEL is 10 mg/kg-day.

Question: And the LOEL [2, 11]?
Answer: The LOEL was 40 mg/kg-day.

Question: And the NOEL [2, 11]?
Answer: Its NOEL is 20 mg/kg-day.

Question: What about the NOEL ([2]; short-term, duration: 7 days, gavage, M, C57BL/6, spleen: splenic DP (CD4+CD8+) cells) of the same compound?
Answer: The NOEL was 40 mg/kg-day.

Question: And the LOEL [2, 12]?
Answer: The LOEL was 10 mg/kg-day.

Question: What about the NOEL [2, 12] of the same compound?
Answer: The NOEL was 5 mg/kg-day.

Question: And the LOEL [2, 13]?
Answer: Its LOEL is 0.02%.

Question: And the NOEL [2, 13]?
Answer: The NOEL was 0.005%.

Question: What about the NOEL ([2]; short-term, duration: 10 days, diet, M, C57BL/6, blood serum: IL-6 levels (+LPS in vivo) + blood serum: TNF-alpha levels + blood serum: TNF-alpha levels (+LPS in vivo) + bone marrow: IL-6 …) of the same compound?
Answer: Its NOEL is 0.02%.

Question: What about the LOEL ([2]; short-term, duration: 10 days, diet, M, C57BL/6, blood serum: IL-6 levels + bone marrow: IL-6 levels (+ LPS in vitro) + bone marrow: IL-6 levels (+ LPS in vivo) + bone marrow: percent …) of the same compound?
Answer: Its LOEL is 0.02%.

Question: What about the LOEL [2, 14] of the same compound?
Answer: Its LOEL is 0.02%.

Question: And the NOEL [2, 14]?
Answer: Its NOEL is 0.002%.

Question: And the NOEL ([2]; short-term, duration: 10 days, diet, M, C57BL/6, bone marrow: bone marrow: no. of early mature CD19+CD138-IgM+ B cells)?
Answer: The NOEL was 0.02%.

Question: What about the LOEL ([2]; short-term, duration: 10 days, diet, M, C57BL/6, intrahepatic immune cells: TER119 (erythroid progenitor) + liver: IFN-gamma levels + liver: IL-4 levels + liver: TNF-alpha levels) of the same compound?
Answer: Its LOEL is 0.005%.

Question: And the NOEL ([2]; short-term, duration: 10 days, diet, M, C57BL/6, intrahepatic immune cells: all leukocytes (CD45+) + intrahepatic immune cells: B cells (CD19+) + intrahepatic immune cells: CD138 (plasma …)?
Answer: The NOEL was 0.005%.

Question: And the LOEL ([2]; short-term, duration: 10 days, diet, M, C57BL/6, liver: IFN-gamma levels + liver: IFN-gamma levels (+Con A) + liver: IL-4 levels + liver: IL-4 levels (+Con A) + liver: TNF-alpha levels + …)?
Answer: The LOEL was 0.004%.

Question: What about the LOEL [2, 15] of the same compound?
Answer: Its LOEL is 0.02%.

Question: What about the NOEL [2, 15] of the same compound?
Answer: Its NOEL is 0.005%.

Question: What about the NOEL ([2]; short-term, duration: 10 days, diet, M, spleen: spleen CD19+ cells + spleen: spleen CD4+ cells + spleen: spleen CD8+ cells + spleen: spleen cellularity + spleen: spleen Pan-NK+ …) of the same compound?
Answer: Its NOEL is 0.02%.

Question: And the LOEL [2, 16]?
Answer: The LOEL was 0.02%.

Question: And the NOEL [2, 16]?
Answer: Its NOEL is 0.005%.

Question: What about the LOEL [2, 17] of the same compound?
Answer: The LOEL was 10 mg/kg-day.

Question: And the NOEL [2, 17]?
Answer: The NOEL was 5 mg/kg-day.

Question: And the LOEL [2, 18]?
Answer: The LOEL was 20 mg/kg-day.

Question: What about the NOEL [2, 18] of the same compound?
Answer: Its NOEL is 10 mg/kg-day.

Question: And the LOEL [2, 19]?
Answer: Its LOEL is 20 mg/kg-day.

Question: And the NOEL [2, 19]?
Answer: Its NOEL is 5 mg/kg-day.

Question: And the NOEL ([2]; short-term, duration: 14 days, gavage, M, BALB/c, spleen mRNA expression of IL-1Beta + thymus mRNA expression of IL-1Beta + thymus: percentage of apoptotic cells in thymus + thymus: thymus: …)?
Answer: Its NOEL is 20 mg/kg-day.

Question: And the LOEL [2, 20]?
Answer: Its LOEL is 10 mg/kg-day.

Question: And the NOEL [2, 20]?
Answer: Its NOEL is 5 mg/kg-day.

Question: What about the LOEL ([2]; short-term, duration: 14 days, gavage, M, BALB/c, spleen: spleen CD3+ cells (cells normalized to control) + spleen: spleen CD3+CD4+ cells (cells normalized to control) + spleen: spleen CD3+…) of the same compound?
Answer: The LOEL was 2.5 mg/kg-day.

Question: And the LOEL [2, 21]?
Answer: Its LOEL is 5 mg/kg-day.

Question: And the NOEL [2, 21]?
Answer: Its NOEL is 2.5 mg/kg-day.

Question: And the LOEL [2, 22]?
Answer: The LOEL was 20 mg/kg-day.

Question: What about the NOEL [2, 22] of the same compound?
Answer: The NOEL was 5 mg/kg-day and 10 mg/kg-day.

Question: What about the LOEL ([2]; short-term, duration: 14 days, gavage, M, BALB/c, thymus: percentage of apoptotic cells in thymus + thymus: thymus: relative weight) of the same compound?
Answer: Its LOEL is 5 mg/kg-day.

Question: And the “LOEL (TAD)” value ([2]; short-term, duration: 21 days, gavage, F, B6C3F1, IgM antibody titer (TNP))?
Answer: The value was 7 mg/kg-day.

Question: And the LOEL [2, 23]?
Answer: The LOEL was 0.025 mg/kg-day.

Question: And the NOEL [2, 23]?
Answer: Its NOEL is 0.005 mg/kg-day.
